The values below come from PubChem BioAssay AID1259408 (Genetic Toxicology Data Bank (GENE-TOX), 2018).

Calls of active or inactive are those of the source. The rule behind the calls is not given here.

The series deals with GENE-TOX genotoxicity assays, various organisms and cells. In words: GENE-TOX mutagenicity studies. Particulars: for call: Assay Type: In vivo carcinogenicity studies.
The mark [1] stands for this setting: Species/Cell Type: Salmonella typhimurium (one or more of the five standard strains: TA98, TA100, TA1535, TA1537, and TA1538), Assay Type: Histidine reverse gene mutation, Ames assay, Assay Code: SALT, Evaluation Type: Evaluation A (Pre-1980).
Setting [2] is: Species/Cell Type: Salmonella typhimurium (one or more of the five standard strains: TA98, TA100, TA1535, TA1537, and TA1538), Assay Type: Histidine reverse gene mutation, Ames assay, Assay Code: SAL+*, Activation: With metabolic activation, Evaluation Type: Evaluation A (Pre-1980).
Where [3] appears, read: Species/Cell Type: Drosophila melanogaster, Assay Type: Sex-linked recessive lethal gene mutation, Assay Code: SRL+, Evaluation Type: Evaluation A (Pre-1980).
Where [4] appears, read: Species/Cell Type: Saccharomyces cerevisiae, Assay Type: Mitotic recombination or gene conversion, Assay Code: YEC+, Evaluation Type: Evaluation A (Pre-1980).
[5] abbreviates: Species/Cell Type: Salmonella typhimurium (one or more of the five standard strains: TA98, TA100, TA1535, TA1537, and TA1538), Assay Type: Histidine reverse gene mutation, Ames assay, Assay Code: SAL+, Evaluation Type: Evaluation A (Pre-1980).
Setting [6] is: Species/Cell Type: Human diploid fibroblasts, Assay Type: Unscheduled DNA synthesis (UDS) in vitro, DNA effects, Assay Code: UDH+, Evaluation Type: Evaluation A (Pre-1980).
The mark [7] stands for this setting: Species/Cell Type: Nonhuman, Assay Type: Sister-chromatid exchange (SCE) in vitro, Assay Code: SC2+D, Dose Response: With dose response, Evaluation Type: Evaluation B (Post-1980).
[8] abbreviates: Species/Cell Type: Human lymphocytes, Assay Type: Sister-chromatid exchange (SCE) in vitro, Assay Code: SCLT, Evaluation Type: Evaluation B (Post-1980).
Where [9] appears, read: Species/Cell Type: Human, Assay Type: Sister-chromatid exchange (SCE) in vitro, Assay Code: SC1T, Evaluation Type: Evaluation B (Post-1980).
The mark [10] stands for this setting: Species/Cell Type: Nonhuman, Assay Code: CCG+, Evaluation Type: Evaluation A (Pre-1980).
[11] abbreviates: Species/Cell Type: Salmonella typhimurium, Assay Type: Forward and reverse gene mutation, host-mediated assay, Assay Code: HMA+, Evaluation Type: Evaluation A (Pre-1980).
The mark [12] stands for this setting: Species/Cell Type: Drosophila melanogaster, Assay Type: Sex-linked recessive lethal gene mutation, Assay Code: SRLT, Evaluation Type: Evaluation A (Pre-1980).

Consider `OCl`, for which the mutagenic call reads like this: (Species/Cell Type: Escherichia coli polA (W3119 vs P3478), Assay Type: Rec-assay, DNA effects (bacterial DNA repair), Assay Code: RE1+, Evaluation Type: Evaluation A (Pre-1980)) “active; positive”; (Species/Cell Type: Human lymphocytes or leukocytes, Assay Type: Chromosome aberrations in vitro, Assay Code: CY7+D, Dose Response: With dose response, Evaluation Type: Evaluation A (Pre-1980)) “active; positive”; (Species/Cell Type: Human, Assay Type: Sister-chromatid exchange (SCE) in vitro, Assay Code: SC1+, Evaluation Type: Evaluation B (Post-1980)) “active; positive”; (Species/Cell Type: Mammalian polychromatic erythrocytes, Assay Type: Micronucleus test, chromosome aberrations, Assay Code: MNTT, Evaluation Type: Evaluation B (Post-1980)) “no conclusion”; (Species/Cell Type: Nonhuman, Assay Type: Chromosome aberrations in vitro, Assay Code: CY&+D, Dose Response: With dose response, Evaluation Type: Evaluation A (Pre-1980)) “active; positive”; under setting [1], “no conclusion”.
`O=c1cc(O)c2ccccc2[nH]1`: the mutagenic call under setting [2] was “active; positive”.
As to `CC(C)NP(=O)(N1CC1)N1CC1`, the mutagenic call is “active; positive” under setting [3] and “active; positive” (Species/Cell Type: Nonhuman, Assay Type: Chromosome aberrations in vitro, Assay Code: CY&+, Evaluation Type: Evaluation A (Pre-1980)).
With `CN(C)N=Nc1cccnc1`, the mutagenic call is, setting by setting: under setting [3], “active; positive”; (Species/Cell Type: Mammalian polychromatic erythrocytes, Assay Type: Micronucleus test, chromosome aberrations, Assay Code: MNT+, Evaluation Type: Evaluation A (Pre-1980)) “active; positive”; (Species/Cell Type: Saccharomyces cerevisiae, Assay Type: Forward and reverse gene mutation, mitotic recombination and gene conversion, host-mediated assay, Assay Code: HME+, Evaluation Type: Evaluation A (Pre-1980)) “active; positive”; under setting [4], “active; positive”.
Take `CC(=O)OC(c1ccccc1)N(C)N=O` (stereo unspecified): the mutagenic call under setting [5] was “active; positive”.
For the compound `CCCCCCCCCCCCCC(=O)ON(C(C)=O)c1ccc2c(c1)Cc1ccccc1-2`, the mutagenic call is, setting by setting: under setting [6], “active; positive”; under setting [1], “no conclusion”.
As to `COc1cc([N+](=O)[O-])ccc1N=Nc1ccccc1`, the mutagenic call under setting [1] is “no conclusion”.
As for `CC(=O)ONC(=O)c1ccc2ccccc2c1`, the mutagenic call under setting [7] is “active; positive”.
In the case of `Nc1ccc(-c2ccc(-c3ccc(N)cc3)cc2)cc1`, the mutagenic call (Species/Cell Type: Mammalian polychromatic erythrocytes, Assay Type: Micronucleus test, chromosome aberrations, Assay Code: MNT+, Evaluation Type: Evaluation B (Post-1980)) was “active; positive”.
With `N[C@@H](CS)C(=O)O`, the mutagenic call is “inactive; negative” (Species/Cell Type: Allium cepa, Assay Type: Chromosome aberrations, Assay Code: ALC-, Evaluation Type: Evaluation A (Pre-1980)); “no conclusion” under setting [8]; “no conclusion” under setting [9]; “active; positive” under setting [7].
For `Cc1ncc(COP(=O)(O)O)c(C=O)c1O`, the mutagenic call under setting [8] is listed as “no conclusion” and the mutagenic call under setting [9] is on record as “no conclusion”.
As to `Nc1ccccc1O`, under “Species/Cell Type: Human, Assay Type: Sister-chromatid exchange (SCE) in vitro, Assay Code: SC1+D, Dose Response: With dose response, Evaluation Type: Evaluation B (Post-1980)”, the mutagenic call is “active; positive”.
With `CN=[N+](C)[O-]`, the mutagenic call is “active; positive” under setting [3]; “inactive; negative” (Species/Cell Type: Mouse (BALB/c-3T3) cells, Assay Type: Cell transformation, Assay Code: CTB-, Evaluation Type: Evaluation A (Pre-1980)); “active; positive” under setting [2]; “active; positive” under setting [11]. Moreover, the call under setting [10] is “active; positive”.
Turning to `O=NN(CCCl)C(=O)NCCCCCNC(=O)N(CCCl)N=O`, the mutagenic call by setting is: under setting [3], “active; positive”; under setting [4], “active; positive”.
Consider `O=[N+]([O-])c1ccc(/C=N\O)o1`, for which the mutagenic call reads like this: (Species/Cell Type: Escherichia coli WP2, Assay Type: Tryptophan reverse gene mutation, Assay Code: WP2-, Evaluation Type: Evaluation A (Pre-1980)) “inactive; negative”; (Species/Cell Type: Escherichia coli WP2 UVRA, Assay Type: Tryptophan reverse gene mutation, Assay Code: WPU+D, Dose Response: With dose response, Evaluation Type: Evaluation A (Pre-1980)) “active; positive”; under setting [5], “active; positive”.
On to `c1ccc(NNc2ccccc2)cc1`, for which, under setting [10], the call is “active; positive”.
Take `CO[C@H]1/C=C/O[C@@]2(C)Oc3c(C)c(O)c4c(O)c(c(/C=N/N5CCN(C)CC5)c(O)c4c3C2=O)NC(=O)/C(C)=C\C=C\[C@H](C)[C@H](O)[C@@H](C)[C@@H](O)[C@@H](C)[C@H](OC(C)=O)[C@@H]1C`: under setting [12], the mutagenic call is recorded as “no conclusion”.
Turning to `CCC1(c2ccccc2)C(=O)N=C(O)NC1=O` (stereo unspecified), the mutagenic call runs as follows: under setting [12], “no conclusion”; (Species/Cell Type: Mouse, Sex: Male, Assay Type: Sperm morphology, Assay Code: SPI-, Evaluation Type: Evaluation A (Pre-1980)) “inactive; negative”; (Species/Cell Type: Nonhuman, Assay Type: Sister-chromatid exchange (SCE) in vivo, Assay Code: SC3T, Evaluation Type: Evaluation B (Post-1980)) “no conclusion”; (Species/Cell Type: Salmonella typhimurium (one or more of the five standard strains: TA98, TA100, TA1535, TA1537, and TA1538), Assay Type: Histidine reverse gene mutation, Ames assay, Assay Code: SAL-, Evaluation Type: Evaluation A (Pre-1980)) “inactive; negative”.
`C=CCN(CC=C)N=O`: under setting [2], the mutagenic call is “active; positive”.
On to `CC(=O)ON(C(C)=O)c1ccc(/C=C\c2ccccc2)cc1`, for which, under setting [6], the mutagenic call was “active; positive”. Also, for the setting “Species/Cell Type: Nonhuman, Assay Code: CCG+L, Evaluation Type: Evaluation A (Pre-1980)”, the call was “active; positive”.
Turning to `O=NN1CCNCC1`, the mutagenic call under setting [11] was “active; positive”.
